The test system of experiment [1] is Mmp9. Put plainly: MMP9 activity by gelatin zymography in conditioned media of mouse peritoneal macrophages cultured on fibronectin. The format is cell-based. As to conditions: for maximal inhibition of fibronectin-induced MMP9 production/activity: both wild type and Arhgef1-deficient macrophages, aspirin up to 20 mM, L-161,982, PTA2 1.56 or 6.25 μM, L-655,240 28 μM. As for the experimental part: FIG. 5. TP-induced MMP9 production is only partially dependent on COX activity. A) PEMs were cultured on fibronectin for 24 hours with 5% FCS, washed then treated with different concentration of aspirin or 1.6 μM PTXA2 at for an additional 24 hours without FCS. MMP9 activity was determined by zymography from supernatants of wild type (open) or Arhgef1−/− (filled) macrophages. Activity was normalized to activity generated from cells cultured on fibronectin without treatment. B) MMP9 activity in conditioned media from peripheral blood monocytes cultured as described in panel A. Data represents mean±SE (n=3 independent donors).
FIG. 6. The antioxidant mimetic MnTE-2PyP reduces MMP9 activity in macrophages. PEMs were cultured on fibronectin for 24 hours with 5% FCS, washed then treated with MnTE-2PyP at the indicated concentrations for an additional 24 hours without FCS. MMP9 activity was determined by zymography from supernatants of wild type (open) or Arhgef1−/− (filled) macrophages. Activity was normalized to activity generated from cells cultured on fibronectin without treatment.
FIG. 11. Cyclooxygenase activity but not EP4 receptor signaling is required for MMP9 production by murine macrophages cultured on fibronectin. A, representative MMP9 gelatin zymograms of conditioned media from peritoneal macrophages cultured on either plastic (ctl) or FN and treated with increasing concentrations of aspirin (1.25, 5.0, and 20 mM, respectively). Wild type (+/+) and Arhgef1^−/− (−/−) samples from separate zymograms are shown. Molecular weight standards and respective enzymatic activities of MMP9 and MMP2 are shown. B, quantitation of MMP9 activity as determined by densitometric analysis of zymograms in A. MMP 9 activity is shown in arbitrary units and represents n=6 for both wild type (open bars) and Arhgef1^−/− (black bars) samples. The results are compiled from two independent experiments. The data represent the means±S.E. *, p<0.05 Student's two-tailed t test compared with conditioned media from cells cultured on plastic. #, p<0.05 Student's two-tailed test comparing conditioned media from wild type cells to Arhgef1^−/− cells cultured under identical conditions. $, p<0.05 Student's two-tailed t test compared with conditioned media from cells cultured on fibronectin. C, quantitation of MMP9 activity in conditioned media from macrophages cultured on fibronectin in the presence of the EP4 antagonist L161,982 (10 μM). MMP9 activity was normalized to fibronectin response for each genotype. The results are compiled from two independent experiments with wild type (open bars, n=5) and Arhgef1^−/− (black bars, n=5) samples. The data represent the means±S.E. *, p<0.05 Student's two-tailed t test compared with conditioned media from cells cultured on plastic. #, p<0.05 Student's two-tailed t test compared with conditioned media from cells cultured on fibronectin.
FIG. 12. Thromboxane receptor signaling is necessary for fibronectin-induced MMP9 production by macrophages and is attenuated by Arhgef1. A, representative gelatin zymograms of conditioned media from macrophages cultured on plastic (ctl) or FN and treated with 1.56 or 6.25 μM of the thromboxane receptor antagonist PTA2. Wild type (+/+) and Arhgef1^−/− (−/−) samples from separate zymograms are shown. B, quantitation of MMP9 activity as determined by densitometric analysis of zymograms in A. The results are representative of two independent experiments. C, representative zymograms from conditioned media from macrophages cultured on plastic or fibronectin and treated with 28 μM of the thromboxane receptor antagonist L-655,240. D, quantitation of MMP9 activity as determined by densitometric analysis of zymograms in C. The results are compiled from two independent experiments with n=4 for both wild type (open bars) and Arhgef1^−/− (black bars) samples. […]

The next experiment has as its system MMP2. Kind of experiment: MMP2 activity by gelatin zymography in conditioned media of mouse peritoneal macrophages cultured on fibronectin. The format is cell-based. To be noted: wild type and Arhgef1−/− macrophages; 20 mM aspirin or 28 μM L-655,240. On the procedure: FIG. 12. Thromboxane receptor signaling is necessary for fibronectin-induced MMP9 production by macrophages and is attenuated by Arhgef1. A, representative gelatin zymograms of conditioned media from macrophages cultured on plastic (ctl) or FN and treated with 1.56 or 6.25 μM of the thromboxane receptor antagonist PTA2. Wild type (+/+) and Arhgef1^−/− (−/−) samples from separate zymograms are shown. B, quantitation of MMP9 activity as determined by densitometric analysis of zymograms in A. The results are representative of two independent experiments. C, representative zymograms from conditioned media from macrophages cultured on plastic or fibronectin and treated with 28 μM of the thromboxane receptor antagonist L-655,240. D, quantitation of MMP9 activity as determined by densitometric analysis of zymograms in C. The results are compiled from two independent experiments with n=4 for both wild type (open bars) and Arhgef1^−/− (black bars) samples. […] E, MMP2 activity was quantitated in conditioned media as previously described for MMP9. […] The data represent the means±S.E. F, MMP9 activity was quantitated as previously described and normalized to a percentage of fibronectin response for each genotype. […] G, relative Mmp9 expression was measured by qPCR in macrophages cultured on fibronectin in the presence of the thromboxane receptor agonist (U-46619, 10 nM), S1P (40 nM), or LPA (10 μM). […]

In experiment [2] the test system is Mmp9. Put plainly: Mmp9 expression by qPCR in mouse peritoneal macrophages cultured on fibronectin. The experiment is classed as cell-based. On the procedure: (§1) FIG. 4. TP signaling is required for MMP9 production in vitro and in vivo. A) Macrophage Mmp9 expression after culture on fibronectin for 24 hrs in media/vehicle (−), 40 nM S1P, 10 μM LPA, 10 nM U-46619 (TP agonist) or 6 μM PTXA2 (TP antagonist). Data represent normalized mean±SE. B) Arhgef1−/− mice (n=16) were exposed to aerosolized PBS (n=16), 220 μM PTXA2 (n=6) or 190 μM U-46619 (n=10) for 20 minutes and BAL harvested 1 day later and MMP activity measured.
FIG. 12. Thromboxane receptor signaling is necessary for fibronectin-induced MMP9 production by macrophages and is attenuated by Arhgef1. A, representative gelatin zymograms of conditioned media from macrophages cultured on plastic (ctl) or FN and treated with 1.56 or 6.25 μM of the thromboxane receptor antagonist PTA2. Wild type (+/+) and Arhgef1^−/− (−/−) samples from separate zymograms are shown. B, quantitation of MMP9 activity as determined by densitometric analysis of zymograms in A. The results are representative of two independent experiments. C, representative zymograms from conditioned media from macrophages cultured on plastic or fibronectin and treated with 28 μM of the thromboxane receptor antagonist L-655,240. D, quantitation of MMP9 activity as determined by densitometric analysis of zymograms in C. The results are compiled from two independent experiments with n=4 for both wild type (open bars) and Arhgef1^−/− (black bars) samples. The data represent the means±S.E. *, p<0.05 Student's two-tailed t test compared with conditioned media from cells cultured on plastic. #, p<0.05 Student's two-tailed t test comparing conditioned media from wild type cells to Arhgef1^−/− cells cultured under identical conditions. $, p<0.05 Student's two-tailed t test compared with conditioned media from cells cultured on fibronectin. E, MMP2 activity was quantitated in conditioned media as previously described for MMP9. The results are compiled from four independent experiments with n=10 for wild type (open bars) and Arhgef1^−/− (black bars) samples cultured on either plastic or fibronectin. For cells treated with 20 mM aspirin, n=6 for wild type (open bars) and Arhgef1^−/− (black bars) samples. For cells treated with 28 μM L-655,240, n=4 for wild type (open bars) and Arhgef1^−/− (black bars) samples. The data represent the means±S.E. F, MMP9 activity was quantitated as previously described and normalized to a percentage of fibronectin response for each genotype. The cells were either untreated or treated with 0.5% Me2SO or 28 μM L-655,240. The results are compiled from two independent experiments with n=3 for all conditions and genotypes. The data represent the means±S.E. *, p<0.05 Student's two-tailed t test compared with conditioned media from cells cultured on fibronectin. G, relative Mmp9 expression was measured by qPCR in macrophages cultured on fibronectin in the presence of the thromboxane receptor agonist (U-46619, 10 nM), S1P (40 nM), or LPA (10 μM). […] Wild type (open bars, n=12, 6, 3, and 3 for fibronectin, +U-46619, +S1P, and +LPA, respectively) and Arhgef1^−/− (black bars, n=14, 6, 3, and 2, respectively) from at least two independent experiments. The data represent the means±S.E. *, p<0.05 Student's two-tailed t test compared with conditioned media from cells cultured on fibronectin, #, p<0.05 Student's two-tailed t test comparing conditioned media from wild type cells to Arhgef1^−/− cells cultured under identical conditions. […]
For orientation: Real-time PCR tracks product formation cycle by cycle.

In experiment [3] the test system is Mmp9. Kind of experiment: MMP9 activity in BAL of Arhgef1−/− mice after aerosol exposure. The experiment is classed as in vivo, mouse. To be noted: inhalation of aerosol 20 min (220 μM PTXA2, 190 μM U-46619), BAL 24 hours later. On the procedure:
as §1

Experiment [4] deals with MMP9. Kind of experiment: MMP9 activity by gelatin zymography, peripheral blood monocytes from COPD patients on fibronectin. The format is cell-based, human. As to conditions: monocytes from 3 COPD patients; dose response 0.4 μM to 260 μM. As for the experimental part: FIG. 17. Seratrodast (AA-2414) treatment on peripheral blood monocytes from 3 COPD patients. Generated dose response curve going firm 0.4 μM to 260 μM. Measured response by gelatin zymography of conditioned media. A is a representative zymogram from a single individual COPD patient. B depicts results compiled from three COPD patients. *, p<0.05 for ctl vs FN; #, p<0.05 FN vs FN+seratrodast.
For other human studies, we quantitated MMP9 by ELISA in conditioned medium (ELISA TECH, Aurora, Colo.).
Novex (Invitrogen) zymogram 10% gelatin gels were used for zymography as indicated per the manufacturer's instructions on conditioned media. Protease activity was detected as a loss of gelatin at the molecular weight of the indicated MMP and quantified by densitometric analysis using ImageJ (National Institutes of Health) software.
As another example, the thromboxane receptor antagonist seratrodast (AA-2414) was used on peripheral blood monocytes from 3 COPD patients and data collected as shown in FIG. 17.

Where [5] appears, read: wild type and Arhgef1-deficient macrophages on fibronectin, 40 nM S1P, 10 μM LPA, 6 μM PTXA2, 24 h.

Entries after “also recorded” stand apart in the source; their conditions may differ.

Consider `CCCCc1nn(-c2ccccc2C(F)(F)F)c(=O)n1Cc1ccc(-c2ccccc2S(=O)(=O)NC(=O)c2sccc2C)cc1` [L-161,982], for which the “maximal inhibition of fibronectin-induced MMP9 production/activity” value with Mmp9 [1] was −40%.

As for `Cc1c(CC(C)(C)C(=O)O)n(Cc2ccc(Cl)cc2)c2ccc(F)cc12` [L-655,240, 1-[(4-Chlorophenyl)methyl]-5-fluoro-α,α,3-trimethyl-1H-indole-2-propanoic acid], the MMP2 activity entry in the experiment on MMP2 is “not affected”. Moreover, in the experiment on Mmp9 [1], the “maximal inhibition of fibronectin-induced MMP9 production/activity” value is listed as −90%. For the same compound, the “fibronectin-mediated MMP9 activity (effect in words)” value in the experiment on Mmp9 [1] (mouse macrophages, wild type and Arhgef1−/−, 1.6 μM PTXA2, 28 μM L-655,240) was “significantly reduced MMP9 activity”.

For the compound `CCCCCCCCCCCCC/C=C/[C@@H](O)[C@@H](N)COP(=O)(O)O` [S1P, sphingosine-1-phosphate], the Mmp9 expression entry in the experiment on Mmp9 [2] (setting [5]) was “slight decrease in Mmp9 expression; also recorded: modestly depress Mmp9 expression”.

As to `CCCCC[C@H](O)/C=C/[C@@H]1[C@@H](C/C=C\CCCC(=O)O)[C@H]2CO[C@@H]1C2` [U-46619], the Mmp9 expression entry was “expressed significantly more Mmp9; also recorded: considerably increased Mmp9 expression” with Mmp9 [2] (Arhgef1-deficient macrophages on fibronectin, 10 nM U-46619) and “did not affect wild type cells” with Mmp9 [2] (wild type macrophages on fibronectin, 10 nM U-46619). The “MMP9 activity in BAL” value in the experiment on Mmp9 [3] is “dramatically increased MMP9 activity”.

Consider `CC1=C(C)C(=O)C(C(CCCCCC(=O)O)c2ccccc2)=C(C)C1=O` (stereo not shown) [seratrodast, 7-phenyl-7-(2,4,5-trimethyl-3,6-dioxocyclohexa-1,4-dien-1-yl)heptanoic acid], for which the “MMP9 activity versus dose” value in the experiment with MMP9 [4] is “inverse relationship between MMP9 activity and seratrodast dose”.

On to lysophosphatidic acid [LPA], for which, in the experiment with Mmp9 [2] (setting [5]), the Mmp9 expression entry is “slight decrease in Mmp9 expression; also recorded: modestly depress Mmp9 expression”.

The values are drawn from patent publication US9820951B2, “Pulmonary disease treatment and diagnosis based on Arhgef1” (NATIONAL JEWISH HEALTH, A NON-PROFIT ORGANIZATION, priority 2011, dated 2017).
